{"source": "paper PMC12524402", "about": "“Cobalt(II) Complexes of 4′-Bromo-Fenamic Acid: Antioxidant Properties, Antibacterial Activity, and Interaction with DNA and Albumins” (International Journal of Molecular Sciences, 2025)", "key": {"[1]": {"target": "T1, BSA (bovine serum albumin) (Bos taurus, UniProt P02769)", "T1 construct": "gene ALB; commercial native serum albumin (Sigma-Aldrich), mature secreted protein, catalogue number not given", "T1 sequence (P02769 25-607)": "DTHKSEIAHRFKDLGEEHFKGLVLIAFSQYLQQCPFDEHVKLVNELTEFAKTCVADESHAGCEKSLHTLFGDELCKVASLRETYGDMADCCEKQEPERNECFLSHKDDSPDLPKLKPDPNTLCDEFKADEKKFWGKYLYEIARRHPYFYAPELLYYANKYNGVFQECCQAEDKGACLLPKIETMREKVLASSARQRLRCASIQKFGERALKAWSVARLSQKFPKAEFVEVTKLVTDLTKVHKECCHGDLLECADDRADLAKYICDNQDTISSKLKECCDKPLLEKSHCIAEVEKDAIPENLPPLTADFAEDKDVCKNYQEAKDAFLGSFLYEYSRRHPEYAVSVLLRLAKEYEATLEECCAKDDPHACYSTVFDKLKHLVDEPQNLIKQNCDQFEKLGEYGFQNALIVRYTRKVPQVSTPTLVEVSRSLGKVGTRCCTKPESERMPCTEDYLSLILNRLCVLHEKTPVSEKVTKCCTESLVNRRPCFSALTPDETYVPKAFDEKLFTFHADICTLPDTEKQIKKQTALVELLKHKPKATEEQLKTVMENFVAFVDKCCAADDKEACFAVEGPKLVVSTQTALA", "assay": "tryptophan fluorescence quenching (excitation […] nm), Scatchard plot", "type": "binding", "conditions": "read-out: K(BSA) (converted)"}, "[2]": {"target": "T2, HSA (human serum albumin) (Homo sapiens, UniProt P02768)", "T2 construct": "gene ALB; commercial serum albumin (Sigma-Aldrich), mature secreted protein, catalogue number not given", "T2 sequence (P02768 25-609)": "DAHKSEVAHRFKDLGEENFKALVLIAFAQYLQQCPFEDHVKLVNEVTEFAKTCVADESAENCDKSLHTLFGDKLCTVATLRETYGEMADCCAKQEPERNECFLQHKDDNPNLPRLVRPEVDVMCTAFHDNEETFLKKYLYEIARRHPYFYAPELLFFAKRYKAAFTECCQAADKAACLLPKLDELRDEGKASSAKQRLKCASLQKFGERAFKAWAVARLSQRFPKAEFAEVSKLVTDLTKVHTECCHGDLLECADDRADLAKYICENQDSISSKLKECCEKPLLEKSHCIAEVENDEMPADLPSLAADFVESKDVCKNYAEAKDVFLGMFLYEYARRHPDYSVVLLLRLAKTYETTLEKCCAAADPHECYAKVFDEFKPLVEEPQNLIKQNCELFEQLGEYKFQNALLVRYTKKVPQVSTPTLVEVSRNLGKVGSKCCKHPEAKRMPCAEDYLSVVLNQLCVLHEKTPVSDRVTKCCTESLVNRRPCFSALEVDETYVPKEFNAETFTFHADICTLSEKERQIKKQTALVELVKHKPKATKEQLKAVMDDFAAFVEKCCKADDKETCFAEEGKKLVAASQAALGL", "assay": "tryptophan fluorescence quenching (excitation […] nm), Scatchard plot", "type": "binding", "conditions": "read-out: K(HSA) (converted)"}}, "data": [{"compound": "O=C(O)c1ccccc1Nc1ccc(Br)cc1", "note": "[4′-Br-fenH]", "values": [{"measurement": "Kd", "setting": "[1]", "result": 3.68, "unit": "µM"}, {"measurement": "Kd", "setting": "[2]", "result": 3.7, "unit": "µM"}]}]}
